From ChEMBL document CHEMBL4385643, “Design of a brain-penetrant CDK4/6 inhibitor for glioblastoma” (Bioorg Med Chem Lett, 2019)

Columns and labels:
CDK4/Cyclin D3 = CDK4/Cyclin D3 (Homo sapiens, UniProt P11802)
Description: Inhibition of human full length GST-tagged CDK4 (1 to 303(end) amino acids)/Cyclin D3 (1 to 292(end) amino acids) expressed in baculovirus expression system assessed as inhibition constant using Ulight-4E-BP1 as substrate preincubated for 30 mins followed by substrate addition and incubated for 90 mins by TR-FRET assay

[1] = biological target: Cyclin-dependent kinase 2/cyclin E1 (Homo sapiens, UniProt P24941); experiment: Inhibition of human full length GST-tagged CDK2 (1 to 298(end) amino acids)/Cyclin E1 (1 to 410(end) amino acids) expressed in baculovirus expression system assessed as inhibition constant using Ulight-4E-BP1 as substrate preincubated for 30 mins followed by substrate addition and incubated for 90 mins by TR-FRET assay
CDK6/cyclin D3 = CDK6/cyclin D3 (Homo sapiens, UniProt Q00534)
CDK6/cyclin D3, sequence (P30281 whole entry): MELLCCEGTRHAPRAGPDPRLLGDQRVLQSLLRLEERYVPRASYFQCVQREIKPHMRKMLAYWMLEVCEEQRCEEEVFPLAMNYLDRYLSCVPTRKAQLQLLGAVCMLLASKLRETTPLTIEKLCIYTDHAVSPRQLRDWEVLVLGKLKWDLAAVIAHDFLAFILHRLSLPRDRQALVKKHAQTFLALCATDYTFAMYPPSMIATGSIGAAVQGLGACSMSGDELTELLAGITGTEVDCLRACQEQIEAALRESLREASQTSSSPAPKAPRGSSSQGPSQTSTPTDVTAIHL
CDK6/cyclin D3, sequence (Q00534 whole entry): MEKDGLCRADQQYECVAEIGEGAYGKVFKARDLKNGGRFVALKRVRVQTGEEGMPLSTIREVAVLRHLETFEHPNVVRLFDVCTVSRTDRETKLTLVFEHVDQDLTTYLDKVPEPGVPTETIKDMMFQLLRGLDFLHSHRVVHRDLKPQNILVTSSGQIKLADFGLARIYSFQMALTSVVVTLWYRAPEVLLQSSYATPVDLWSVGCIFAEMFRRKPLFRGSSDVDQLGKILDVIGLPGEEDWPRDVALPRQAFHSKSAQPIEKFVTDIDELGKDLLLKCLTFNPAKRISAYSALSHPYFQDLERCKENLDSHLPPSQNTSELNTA
Description: Inhibition of human full length GST-tagged CDK6 (1 to 326(end) amino acids)/Cyclin D3 (1 to 292(end) amino acids) expressed in baculovirus expression system assessed as inhibition constant using Ulight-4E-BP1 as substrate preincubated for 30 mins followed by substrate addition and incubated for 90 mins by TR-FRET assay

CDK1/Cyclin A = CDK1/Cyclin A (Homo sapiens, UniProt P06493)
CDK1/Cyclin A, sequence (P06493 whole entry): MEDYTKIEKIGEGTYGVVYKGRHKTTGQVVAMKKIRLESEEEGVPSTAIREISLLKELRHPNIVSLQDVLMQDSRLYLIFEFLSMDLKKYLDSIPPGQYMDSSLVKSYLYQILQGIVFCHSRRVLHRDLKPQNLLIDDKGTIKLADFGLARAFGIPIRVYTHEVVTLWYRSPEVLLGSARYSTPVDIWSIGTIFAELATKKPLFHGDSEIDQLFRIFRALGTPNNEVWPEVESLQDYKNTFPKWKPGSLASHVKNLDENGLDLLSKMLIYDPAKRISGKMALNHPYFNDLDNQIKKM
CDK1/Cyclin A, sequence (P20248 whole entry, further chain): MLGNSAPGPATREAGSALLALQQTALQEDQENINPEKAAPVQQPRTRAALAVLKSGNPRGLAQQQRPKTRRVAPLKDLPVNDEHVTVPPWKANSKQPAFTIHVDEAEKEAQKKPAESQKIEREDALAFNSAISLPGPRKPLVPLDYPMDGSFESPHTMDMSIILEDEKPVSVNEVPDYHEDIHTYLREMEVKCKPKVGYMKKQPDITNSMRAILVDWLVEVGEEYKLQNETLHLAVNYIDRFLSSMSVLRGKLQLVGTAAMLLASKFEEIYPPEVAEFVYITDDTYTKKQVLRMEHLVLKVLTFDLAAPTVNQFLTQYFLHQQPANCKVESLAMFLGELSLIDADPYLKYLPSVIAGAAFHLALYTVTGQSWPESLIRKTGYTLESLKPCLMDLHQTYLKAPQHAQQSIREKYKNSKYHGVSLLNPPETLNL
Description: Inhibition of human recombinant full length GST-tagged CDK1/Cyclin A2 expressed in sf9 insect cells assessed as inhibition constant using Ulight-4E-BP1 as substrate preincubated for 30 mins followed by substrate addition and incubated for 90 mins by TR-FRET assay

mouse Bcrp1 = experiment: in vitro; settings: dog
Description: Efflux ratio in MDCK2 expressing mouse bcrp1

[2] = Lipophilicity, log D of the compound by microscale shake flask method; format: physicochemical; settings: octanol/water
human MDR1 = experiment: in vitro; settings: dog, MDCK-MDR1
Description: Efflux ratio in gMDCKI cells expressing human MDR1

CDK4/Cyclin D3, sequence (P11802 whole entry): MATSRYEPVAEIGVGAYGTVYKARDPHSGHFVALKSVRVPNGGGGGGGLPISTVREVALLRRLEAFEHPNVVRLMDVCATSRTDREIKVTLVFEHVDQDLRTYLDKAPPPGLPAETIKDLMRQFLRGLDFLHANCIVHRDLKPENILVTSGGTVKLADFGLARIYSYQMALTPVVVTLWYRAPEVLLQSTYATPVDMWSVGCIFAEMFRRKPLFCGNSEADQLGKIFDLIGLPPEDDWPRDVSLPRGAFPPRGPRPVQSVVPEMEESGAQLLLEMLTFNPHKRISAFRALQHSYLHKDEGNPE
CDK4/Cyclin D3, sequence (P30281 whole entry, further chain): as the sequence (P30281 whole entry) above

SMILES	Ki (CDK4/Cyclin D3)	Ki [1]	Ki (CDK6/cyclin D3)	Ki (CDK1/Cyclin A)	efflux ratio (mouse Bcrp1)	logD [2]	efflux ratio (human MDR1)
CN1CCN(c2ccc(Nc3nccc(-c4cnn5c4CCCC5)n3)nc2)CC1	61 nM	15000 nM	1900 nM	29000 nM			
COCCN1CCC(Nc2nccc(-c3cn[nH]c3C(C)C)n2)CC1	20 nM	320 nM	720 nM	270 nM			
C[C@@H]1CCCn2ncc(-c3nc(Nc4ccc(N5CCN(C)CC5)cn4)ncc3F)c21	1.4 nM		19 nM	770 nM			
CN1CCN(c2ccc(Nc3ncc(F)c(-c4cnn5c4CCCC5)n3)nc2)CC1	3.6 nM		40 nM	2000 nM			
COCCN1CCC(Nc2nccc(-c3cnn4c3CCCC4)n2)CC1	210 nM	7500 nM	7400 nM	5200 nM			
CN1CCN(c2ccc(Nc3ncc(F)c(-c4cnn5c4CCCCC5)n3)nc2)CC1	1.8 nM		24 nM	1300 nM			
CC(C)c1n[nH]cc1-c1ccnc(NC2CCCCC2)n1	18 nM	22 nM	450 nM	24 nM			
C[C@H]1CCCn2ncc(-c3nc(Nc4ccc(N5CCN(C)CC5)cn4)ncc3F)c21	3.8 nM		38 nM	980 nM			
CC(C)c1c(-c2nc(Nc3ccc(N4CCN(C)CC4)cn3)ncc2F)cnn1C	2.7 nM		32 nM	530 nM			

The next compounds have a lower Ki (CDK4/Cyclin D3) than those just listed; values first:

Ki (CDK4/Cyclin D3)	Ki [1]	Ki (CDK6/cyclin D3)	Ki (CDK1/Cyclin A)	efflux ratio (mouse Bcrp1)	logD [2]	efflux ratio (human MDR1)	SMILES
< 0.3 nM		1.6 nM	52 nM	0.9	2.8	2	C[C@@H]1CCCCn2ncc(-c3nc(Nc4ccc(N5CC6(CN(CCF)C6)C5)cn4)ncc3F)c21
0.4 nM		4.3 nM	77 nM				C[C@@H]1CCCCn2ncc(-c3nc(Nc4ccc(N5CC6(C5)CN(C5COC5)C6)cn4)ncc3F)c21
0.4 nM		7.9 nM	70 nM				C[C@@H]1CCCCn2ncc(-c3nc(Nc4ccc(N5CCOCC5)cn4)ncc3F)c21
1.3 nM		37 nM	630 nM				CCN1CCN(Cc2ccc(Nc3ncc(F)c(-c4cnn5c4[C@H](C)CCCC5)n3)nc2)CC1
0.8 nM		18 nM	280 nM				C[C@@H]1CCCCn2ncc(-c3nc(Nc4ccc(C5CCN(C)CC5)cn4)ncc3F)c21
< 0.3 nM		1.7 nM	63 nM				C[C@@H]1CCCCn2ncc(-c3nc(Nc4ccc(N5CC6(CN(C)C6)C5)cn4)ncc3F)c21
1 nM		10 nM	210 nM				C[C@@H]1CCCCn2ncc(-c3nc(Nc4ccc(N5CCC(N(C)C)CC5)cn4)ncc3F)c21
< 0.3 nM		3.3 nM	110 nM				C[C@@H]1CCCCn2ncc(-c3nc(Nc4ccc(N5CC6(CN(CCCF)C6)C5)cn4)ncc3F)c21
